Experimental findings from patent US11345681B1, “Inhibitors of fibroblast growth factor receptor kinases” (Kinnate Biopharma Inc., priority 2020, dated 2022) are described below.

Wild type FGFR2, sequence (P21802 22-821): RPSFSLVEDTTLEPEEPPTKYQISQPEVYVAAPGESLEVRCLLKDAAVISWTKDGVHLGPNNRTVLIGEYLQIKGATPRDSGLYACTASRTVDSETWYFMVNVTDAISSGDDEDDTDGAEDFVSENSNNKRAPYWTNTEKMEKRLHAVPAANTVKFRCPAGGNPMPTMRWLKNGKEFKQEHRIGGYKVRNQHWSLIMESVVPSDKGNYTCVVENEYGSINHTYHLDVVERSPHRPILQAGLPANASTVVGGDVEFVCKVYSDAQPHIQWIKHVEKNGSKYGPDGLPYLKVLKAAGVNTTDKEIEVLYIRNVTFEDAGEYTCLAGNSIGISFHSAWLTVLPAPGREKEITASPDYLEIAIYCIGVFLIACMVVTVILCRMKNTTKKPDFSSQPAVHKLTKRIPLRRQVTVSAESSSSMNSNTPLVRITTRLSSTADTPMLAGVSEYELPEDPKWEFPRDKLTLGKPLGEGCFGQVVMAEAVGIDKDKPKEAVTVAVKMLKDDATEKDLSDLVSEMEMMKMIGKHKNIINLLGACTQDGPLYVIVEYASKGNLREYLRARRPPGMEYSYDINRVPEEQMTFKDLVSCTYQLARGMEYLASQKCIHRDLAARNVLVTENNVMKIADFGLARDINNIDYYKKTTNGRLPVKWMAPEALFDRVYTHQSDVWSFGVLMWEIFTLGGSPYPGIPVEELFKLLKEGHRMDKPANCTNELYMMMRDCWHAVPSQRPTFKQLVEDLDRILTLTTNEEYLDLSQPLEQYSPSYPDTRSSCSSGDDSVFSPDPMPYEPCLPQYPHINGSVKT

This assay addresses Wild type FGFR2 (Homo sapiens (Human), UniProt P21802). The assay is described as follows: FGFR2 kinase assay (fluorescence-based microfluidic mobility shift assay). The assay is classed as biochemical. To be noted: wild type FGFR2 0.06 nM, 100 μM ATP, 80 minutes at room temperature; class symbols.
As a reminder, the IC50 is the midpoint of a concentration-inhibition curve. In the case of `C=CC(=O)N1C[C@@H](n2nc(C#Cc3cc4ncn(C5CC5)c4cc3Cl)c(C(N)=O)c2N)C[C@@H]1COC` [Example 200, 5-Amino-3-[2-(6-chloro-1-cyclopropyl-1,3-benzodiazol-5-yl)ethynyl]-1-[(3S,5R)-5-(methoxymethyl)-1-(prop-2-enoyl)pyrrolidin-3-yl]pyrazole-4-carboxamide], the IC50 is at most 0.1 µM. `C=CC(=O)N1C[C@@H](n2nc(C#Cc3c(F)cc4c(ncn4C4CC4)c3F)c(C(N)=O)c2N)C[C@@H]1CO` [Example 201, 5-Amino-3-[2-(1-cyclopropyl-4,6-difluoro-1,3-benzodiazol-5-yl)ethynyl]-[(3S,5R)-5-(hydroxymethyl)-1-(prop-2-enoyl)pyrrolidin-3-yl]pyrazole-4-carboxamide]: the IC50 is at most 0.1 µM. With `C=CC(=O)N1CC(n2nc(C#Cc3cc4ncn(C5CC5)c4cc3F)c(C(N)=O)c2N)C1` [Example 202, 5-Amino-3-[2-(1-cyclopropyl-6-fluoro-1,3-benzodiazol-5-yl)ethynyl]-1-[1-(prop-2-enoyl)azetidin-3-yl]pyrazole-4-carboxamide] the figure was at most 0.1 µM; with `CNc1c(C(N)=O)c(C#Cc2cc3ncn(C4CC4)c3cc2F)nn1[C@H]1C[C@H](COC)N(C(=O)C#CC(C)(C)O)C1` [Example 203, 3-((1-Cyclopropyl-6-fluoro-1H-benzo[d]imidazol-5-yl)ethynyl)-1-((3S,5R)-1-(4-hydroxy-4-methylpent-2-ynoyl)-5-(methoxymethyl)pyrrolidin-3-yl)-5-(methylamino)-1H-pyrazole-4-carboxamide], at most 0.1 µM.

With `CNc1c(C(N)=O)c(C#Cc2cc3ncn(C4CC4)c3cc2F)nn1C1CN(C(=O)/C=C/CN(C)C)C1` [Example 204, 3-[2-(1-Cyclopropyl-6-fluoro-1,3-benzodiazol-5-yl)ethynyl]-1-{1-[(2E)-4-(dimethylamino)but-2-enoyl]azetidin-3-yl}-5-(methylamino)pyrazole-4-carboxamide], the IC50 lay within 0.1 to 1 µM. With `C=CC(=O)N1C[C@@H](n2nc(C#Cc3cc4ncn(C5CC5)c4cc3F)c(C(N)=O)c2NCC)C[C@@H]1COC` [Example 205, 1-((3S,5R)-1-Acryloyl-5-(methoxymethyl)pyrrolidin-3-yl)-3-((1-cyclopropyl-6-fluoro-1H-benzo[d]imidazol-5-yl)ethynyl)-5-(ethylamino)-1H-pyrazole-4-carboxamide] the figure was at most 0.1 µM; with `C=CC(=O)N1C[C@@H](n2nc(C#Cc3cc4nc(C)n(C5CC5)c4cc3F)c(C(N)=O)c2N)C[C@@H]1COC` [Example 206, 5-Amino-3-[2-(1-cyclopropyl-6-fluoro-2-methyl-1,3-benzodiazol-5-yl)ethynyl]-1-[(3S,5R)-5-(methoxymethyl)-1-(prop-2-enoyl)pyrrolidin-3-yl]pyrazole-4-carboxamide], at most 0.1 µM. With `C=CC(=O)N1C[C@@H](n2nc(C#Cc3cc4ncn(C5CC5)c4cc3F)c(C(N)=O)c2N)C[C@@H]1CO` [Example 207, 5-Amino-3-[2-(1-cyclopropyl-6-fluoro-1,3-benzodiazol-5-yl)ethynyl]-1-[(3S,5R)-5-(hydroxymethyl)-1-(prop-2-enoyl)pyrrolidin-3-yl]pyrazole-4-carboxamide], the IC50 was at most 0.1 µM. On to `C=CC(=O)N1CC(n2nc(C#Cc3cc4ncn(C5CC5)c4cc3Cl)c(C(N)=O)c2N)C1` [Example 208, 5-Amino-3-[2-(6-chloro-1-cyclopropyl-1,3-benzodiazol-5-yl)ethynyl]-1-[1-(prop-2-enoyl)azetidin-3-yl]pyrazole-4-carboxamide], for which the IC50 is at most 0.1 µM. Turning to `C=CC(=O)N1CC(n2nc(C#Cc3cc4ncn(CC)c4cc3Cl)c(C(N)=O)c2N)C1` [Example 209, 5-Amino-3-[2-(6-chloro-1-ethyl-1,3-benzodiazol-5-yl)ethynyl]-1-[1-(prop-2-enoyl)azetidin-3-yl]pyrazole-4-carboxamide], the half-inhibitory concentration (IC50) was at most 0.1 µM. With `C=CC(=O)N1CC(n2nc(C#Cc3c(F)cc4c(ncn4C4CC4)c3F)c(C(N)=O)c2N)C1` [Example 210, 5-Amino-3-[2-(1-cyclopropyl-4,6-difluoro-1,3-benzodiazol-5-yl)ethynyl]-1-[1-(prop-2-enoyl)azetidin-3-yl]pyrazole-4-carboxamide], the IC50 was at most 0.1 µM. With `C=CC(=O)N1C[C@@H](n2nc(C#Cc3cc4ncn(C5CC5)c4cc3F)c(C(N)=O)c2N)C[C@@H]1COC(F)F` [Example 211, 5-Amino-3-[2-(1-cyclopropyl-6-fluoro-1,3-benzodiazol-5-yl)ethynyl]-1-[(3S,5R)-5-[(difluoromethoxy)methyl]-1-(prop-2-enoyl)pyrrolidin-3-yl]pyrazole-4-carboxamide] the figure was at most 0.1 µM; with `C=CC(=O)N1C[C@@H](n2nc(C#Cc3ccc4c(c3)ncn4C3CC3)c(C(N)=O)c2N)C[C@@H]1COC(F)F` [Example 212, 5-Amino-3-[2-(1-cyclopropyl-1,3-benzodiazol-5-yl)ethynyl]-1-[(3S,5R)-5-[(difluoromethoxy)methyl]-1-(prop-2-enoyl)pyrrolidin-3-yl]pyrazole-4-carboxamide], at most 0.1 µM; with `C=CC(=O)N1C[C@@H](n2nc(C#Cc3cc4nc(C)n(C5CC5)c4cc3Cl)c(C(N)=O)c2N)C[C@@H]1COC` [Example 214, 5-Amino-3-[2-(6-chloro-1-cyclopropyl-2-methyl-1,3-benzodiazol-5-yl)ethynyl]-1-[(3S,5R)-5-(methoxymethyl)-1-(prop-2-enoyl)pyrrolidin-3-yl]pyrazole-4-carboxamide], at most 0.1 µM. With `C=CC(=O)N1C[C@@H](n2nc(C#Cc3c(F)cc4c(ncn4C4CC4)c3F)c(C(N)=O)c2N)C[C@@H]1COC(F)F` [Example 215, 5-Amino-3-[2-(1-cyclopropyl-4,6-difluoro-1,3-benzodiazol-5-yl)ethynyl]-1-[(3S,5R)-5-[(difluoromethoxy)methyl]-1-(prop-2-enoyl)pyrrolidin-3-yl]pyrazole-4-carboxamide] the figure was at most 0.1 µM.

As for `C=CC(=O)N1C[C@@H](n2nc(C#Cc3cc4nc(C)n(C5CC5)c4cc3Cl)c(C(N)=O)c2NC)C[C@@H]1[C@@H](C)O` [Example 220, 1-((3S,5R)-1-Acryloyl-5-((R)-1-hydroxyethyl)pyrrolidin-3-yl)-3-((6-chloro-1-cyclopropyl-2-methyl-1H-benzo[d]imidazol-5-yl)ethynyl)-5-(methylamino)-1H-pyrazole-4-carboxamide], the IC50 is at most 0.1 µM.

Consider `C=CC(=O)N1C[C@@H](n2nc(C#Cc3cc4nc(C)n(C5CC5)c4cc3Cl)c(C(N)=O)c2NC)C[C@@H]1[C@H](C)O` [Example 221, 1-((3S,5R)-1-Acryloyl-5-((S)-1-hydroxyethyl)pyrrolidin-3-yl)-3-((6-chloro-1-cyclopropyl-2-methyl-1H-benzo[d]imidazol-5-yl)ethynyl)-5-(methylamino)-1H-pyrazole-4-carboxamide], for which the IC50 is at most 0.1 µM. Then `C=CC(=O)N1C[C@@H](n2nc(C#Cc3cc4ncn(C5CC5)c4cc3Cl)c(C(N)=O)c2NC)C[C@@H]1[C@@H](C)O` [Example 222, 3-[2-(6-Chloro-1-cyclopropyl-1,3-benzodiazol-5-yl)ethynyl]-1-[(3S,5R)-5-[(1R)-1-hydroxyethyl]-1-(prop-2-enoyl)pyrrolidin-3-yl]-5-(methylamino)pyrazole-4-carboxamide], with at most 0.1 µM; and `C=CC(=O)N1C[C@@H](n2nc(C#Cc3cc4ncn(C5CC5)c4cc3Cl)c(C(N)=O)c2NC)C[C@@H]1[C@H](C)O` [Example 223, 3-[2-(6-chloro-1-cyclopropyl-1,3-benzodiazol-5-yl)ethynyl]-1-[(3S,5R)-5-[(1S)-1-hydroxyethyl]-1-(prop-2-enoyl)pyrrolidin-3-yl]-5-(methylamino)pyrazole-4-carboxamide], with at most 0.1 µM. As to `C=CC(=O)N1C[C@@H](n2nc(C#Cc3cc4nc(C)n(C5CC5)c4cc3F)c(C(N)=O)c2NC)C[C@@H]1[C@@H](C)O` [Example 224, 3-[2-(1-Cyclopropyl-6-fluoro-2-methyl-1,3-benzodiazol-5-yl)ethynyl]-1-[(3S,5R)-5-[(1R)-1-hydroxyethyl]-1-(prop-2-enoyl)pyrrolidin-3-yl]-5-(methylamino)pyrazole-4-carboxamide], the IC50 was at most 0.1 µM. With `C=CC(=O)N1C[C@@H](n2nc(C#Cc3cc4nc(C)n(C5CC5)c4cc3F)c(C(N)=O)c2NC)C[C@@H]1[C@H](C)O` [Example 225, 3-[2-(1-Cyclopropyl-6-fluoro-2-methyl-1,3-benzodiazol-5-yl)ethynyl]-1-[(3S,5R)-5-[(1S)-1-hydroxyethyl]-1-(prop-2-enoyl)pyrrolidin-3-yl]-5-(methylamino)pyrazole-4-carboxamide] the figure was at most 0.1 µM. For the compound `CNc1c(C(N)=O)c(C#Cc2cc3nc(C)n(C4CC4)c3cc2F)nn1[C@H]1C[C@H](COC)N(C(=O)C#CC(C)(C)O)C1` [Example 227, 3-[2-(1-Cyclopropyl-6-fluoro-2-methyl-1,3-benzodiazol-5-yl)ethynyl]-1-[(3S,5R)-1-(4-hydroxy-4-methylpent-2-ynoyl)-5-(methoxymethyl)pyrrolidin-3-yl]-5 (methylamino)pyrazole-4-carboxamide], the IC50 was at most 0.1 µM. Then `CNc1c(C(N)=O)c(C#Cc2cc3nc(C)n(C4CC4)c3cc2Cl)nn1[C@H]1C[C@H](COC)N(C(=O)C#CC(C)(C)O)C1` [Example 228, 3-[2-(6-Chloro-1-cyclopropyl-2-methyl-1,3-benzodiazol-5-yl)ethynyl]-1-[(3S,5R)-1-(4-hydroxy-4-methylpent-2-ynoyl)-5-(methoxymethyl)pyrrolidin-3-yl]-5-(methylamino)pyrazole-4-carboxamide], with at most 0.1 µM. Then `C=CC(=O)N1C[C@@H](n2nc(C#Cc3cc4ncn(C5CCC5)c4cc3Cl)c(C(N)=O)c2NC)C[C@@H]1COC` [Example 232, 3-[2-(6-chloro-1-cyclobutyl-1,3-benzodiazol-5-yl)ethynyl]-1-[(3S,5R)-5-(methoxymethyl)-1-(prop-2-enoyl)pyrrolidin-3-yl]-5-(methylamino)pyrazole-4-carboxamide], with at most 0.1 µM.
